The results in this text go back to patent US20150344466A1 (SUMITOMO CHEMICAL COMPANY, LIMITED, priority 2013, published 2015).

Assay type in all cases: in vivo
For test [1], the system named is Culex pipiens pallens. Put plainly: Larvicidal test on Culex pipiens pallens, one day (Test Example 6). As to conditions: 24 h; last-instar larvae of Culex pipiens pallens; 3.5 ppm in water; one day later; read-out: death rate. As to the method: Each of the formulations of Compounds of Present Invention (39), (63), (71), (72), (92), (93), (95), (106), (150), (171), (170), (181), (182), (183), (187), (188), (189), (190), (191), (192), (200), (201), (201), (234), (246), (290) and (299) obtained in Formulation Example 15 was diluted with water, so as to have a concentration of the active ingredient of 500 ppm, to prepare a test drug solution.
20 last-instar larvae of Culex pipiens pallens were released into a liquid to which 0.7 ml of the above test drug solution was added to 100 ml of ion-exchanged water (a concentration of the active ingredient of 3.5 ppm). One day later, the life and death of the Culex pipiens pallens was examined, and the death rate was calculated. The death rate was calculated by the following equation.
Death rate (%)=(Number of dead insects/Number of tested insects)×100

Test [2] relates to Culex pipiens pallens. Put plainly: Larvicidal test on Culex pipiens pallens, eight days (Test Example 7). As to conditions: 192 h; last-instar larvae of Culex pipiens pallens; 3.5 ppm in water; eight days later; read-out: death rate. The essentials:
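Twenty last-instar larvae placed in 100 ml ion-exchanged water containing test drug at 3.5 ppm active ingredient. Mortality scored after eight days; death rate = dead/tested × 100.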

Test [3] has as its system Plutella xylostella. Kind of test: Foliar spray test on Plutella xylostella on cabbage (Test Example 10). As to conditions: 120 h, third instar larvae of Plutella xylostella on cabbage, 500 ppm spray 20 ml/cup, after five days, read-out: controlling value. In outline: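 Cabbage at the third–fourth true-leaf stage sprayed with test solution at 20 ml/cup, dried, then infested with 10 third-instar larvae. Insects counted after five days; controlling value (%) calculated from treated and non-treated counts before treatment and at observation.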

The subject of test [4] is Adoxophyes orana fasciata. Put plainly: Spray test on Adoxophyes orana fasciata on apple seedling (Test Example 12). As to conditions: 168 h, first-instar larvae of Adoxophyes orana fasciata on apple seedling, 20 ml spray, seven days after spraying. As to the method:
On the other hand, 20 ml of the test spray solution was each sprayed on an apple seedling (28 days after sowing, a tree height of about 15 cm) planted in a plastic cup. After the drug solution sprayed on the apple was air-dried, about 30 first-instar larvae of Adoxophyes orana fasciata were released. Seven days after spraying, the number of surviving Adoxophyes orana fasciata on the apple seedling was investigated, and the controlling value was calculated according to the following equation. Controlling value (%)={1−(Cb×Tai)/(Cai×Tb)}×100 In the equation, the symbols represent as follows. Cb: the number of insects in a non-treated section before treatment Cai: the number of insects in a non-treated section on observation Tb: the number of insects in a treated section before treatment Tai: the number of insects in a treated section on observation

For test [5], the system named is Culex pipiens pallens. Kind of test: Knockdown spray test on adult Culex pipiens pallens (Test Example 4). As to conditions: topical, 0.25 h, active ingredient 0.1% w/v, 0.5 ml sprayed, within 15 minutes, read-out: knockdown rate of the test insects within 15 minutes. In outline:
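Knockdown counts were taken 2, 5 and 15 min after spraying and expressed as percent of the 10 adults tested. For the spray, 0.5 ml of solution was applied by spray gun (0.4 kg/cm^2) from 30 cm above a gauze-covered cup in a test chamber; the cup was taken out right after spraying.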

In test [6] the test system is Aphis gossypii. Put plainly: Foliar spray test on Aphis gossypii on cucumber (Test Example 8). As to conditions: 144 h, 500 ppm spray 20 ml/cup, Sir days after spraying, read-out: controlling value. As to the method: On the other hand, cucumber was planted in a polyethylene cup and grown until the first true leaf was spread, and about 20 Aphis gossypii were allowed to parasitize the cucumber. One day after, the test spray solution was sprayed to the cucumber at a ratio of 20 ml/cup. Sir days after spraying, the number of Aphis gossypii was investigated, and the controlling value was calculated according to the following equation. Controlling value (%)={1−(Cb×Tai)/(Cai×Tb)}×100 In the equation, the symbols represent as follows. Cb: the number of insects in a non-treated section before treatment Cai: the number of insects in a non-treated section on observation Tb: the number of insects in a treated section before treatment Tai: the number of insects in a treated section on observation

The subject of test [7] is Spodoptera litura. Put plainly: Foliar spray test on Spodoptera litura on cabbage (Test Example 11). The following applies: 96 h, fourth instar larvae of Spodoptera litura on cabbage, 500 ppm spray 20 ml/cup, after 4 days, read-out: controlling value. In outline:
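Cabbage is grown in cups to the third–fourth true leaf and sprayed at 20 ml/cup. Once the spray has dried, 10 fourth-instar larvae are released per cup and survivors are counted after 4 days. Controlling value (%) is corrected using pre-treatment and observation counts in treated and untreated sections.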

The subject of test [8] is Blattella germanica. Put plainly: Knockdown spray test on Blattella germanica, 0.1% w/v oil formulation (Test Example 2). As to conditions: topical, 0.25 h, active ingredient 0.1% w/v, 1.5 ml sprayed, within 15 minutes, read-out: knockdown rate of the test insects within 15 minutes. The essentials:
(§1)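 Ten German cockroaches (5 males, 5 females) in a mesh-bottomed, butter-walled container were sprayed with 1.5 ml test solution from 60 cm at 0.42 kg/cm^2 inside a chamber.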

Test [9] relates to Musca domestica. Kind of test: Filter paper/sucrose bait death rate test on Musca domestica (Test Example 5). The following applies: female imagoes of Musca domestica, 0.7 ml on filter paper, after 24 hours. The essentials:
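Ten female imagoes were confined in a sealed cup over a filter paper treated with 0.7 ml of test solution and 30 mg sucrose bait. Mortality was scored at 24 h and expressed as percent of tested insects killed.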

Test [10] has as its system Aphis gossypii. Kind of test: Soil treatment test on Aphis gossypii on cucumber (Test Example 9). As to conditions: 168 h, 5 ml treatment solution in contact with soil, seven days after putting insects, read-out: controlling value. As for the experimental part:
On the other hand, cucumber was planted in a polyethylene cup with a plurality of small holes on the bottom and grown until the first true leaf was spread. A cup in which cucumber was planted was put in a plastic cup with 5 ml of the test treatment solution, so that the soil in the cup was in contact with the treatment liquid. After five days, about 20Aphis gossypii were allowed to parasitize the cucumber, and seven days after putting insects, the number of Aphis gossypii was investigated, and the controlling value was calculated according to the following equation. Controlling value (%)={1−(Cb×Tai)/([…])}×100 In the equation, the symbols represent as follows. Cb: the number of insects in a non-treated section before treatment Cai: the number of insects in a non-treated section on observation Tb: the number of insects in a treated section before treatment Tai: the number of insects in a treated section on observation

For test [11], the system named is Blattella germanica. Kind of test: Knockdown spray test on Blattella germanica, 2.0% w/v oil formulation (Test Example 1). As to conditions: topical, 0.25 h, active ingredient 2.0% w/v, 1.5 ml sprayed, within 15 minutes, read-out: knockdown rate of the test insects within 15 minutes. The essentials:
as §1

Test [12] relates to Musca domestica. Put plainly: Knockdown spray test on adult Musca domestica (Test Example 3). As to conditions: topical, 0.25 h, active ingredient 2.0% w/v, 0.5 ml sprayed, within 15 minutes, read-out: knockdown rate of the test insects within 15 minutes. In outline:
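Ten adult house flies (5 male, 5 female) in a gauze-covered cup sprayed with 0.5 ml test solution from 30 cm at 0.9 kg/cm^2 inside a chamber, then removed. Knocked-down flies counted at 2, 5 and 15 min and expressed as % of insects tested.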

As to `O=C(NCC1CCS(=O)(=O)C1)c1cc(COCc2ccccc2)on1` (centres unmarked) [(39), N-(1,1-dioxotetrahydrothiophen-3-ylmethyl)-5-benzyloxymethylisoxazole-3-carboxamide], the pest or weed control at 3.5 ppm in [1] and in test [2] was ≥ 90% each time. Further, the pest or weed control at 500 ppm in [3] is ≥ 90%; in test [4], 100%.
Regarding `O=C(NCC1CCOCC1)c1cc(COCc2cccc(SC(F)(F)F)c2)on1` [(81), N-(tetrahydropyran-4-ylmethyl)-5-(3-trifluoromethylthiobenzyloxymethyl)isoxazole-3-carboxamide], the pest or weed control at 0.1 % strength in [5] was ≥ 80%. Further, the pest or weed control at 500 ppm was ≥ 90% in test [6], ≥ 90% in test [3] and ≥ 80% in [7].
Turning to `O=C(NCC1CCOCC1)c1cc(COCc2ccc(OC(F)(F)F)cc2)on1` [(94), N-(tetrahydropyran-4-ylmethyl)-5-(4-trifluoromethoxybenzyloxymethyl)isoxazole-3-carboxamide], the pest or weed control at 0.1 % strength in test [8] and in test [5] was ≥ 80% each time. For the same compound, the pest or weed control at 500 ppm in test [6] and in [3] was ≥ 90% in each case.
As for `O=C(NCC1CCOC1)c1cc(COCc2ccc3c(c2)OCO3)on1` (centres unmarked) [(105), N-(tetrahydrofuran-3-ylmethyl)-5-(3,4-methylenedioxybenzyloxymethyl)isoxazole-3-carboxamide], the pest or weed control at 0.1 % strength in test [8] and in test [5] was ≥ 80% each time. Moreover, the pest or weed control at 500 ppm in test [9] is ≥ 90%; in test [10] it was ≥ 90%; in test [3], ≥ 90%; in test [7], ≥ 80%. Further, in test [2], the pest or weed control at 3.5 ppm was ≥ 90%.
In the case of `O=C(NCC1CCOCC1)c1cc(COCc2ccc3c(c2)OCO3)on1` [(106), N-(tetrahydropyran-4-ylmethyl)-5-(3,4-methylenedioxybenzyloxymethyl)isoxazole-3-carboxamide], the pest or weed control at 0.1 % strength in [8] and in test [5] was ≥ 80% throughout. Further, the pest or weed control at 3.5 ppm in test [1] and in test [2] was ≥ 90% throughout. Also, the pest or weed control at 500 ppm was ≥ 90% in test [10], ≥ 90% in test [3] and ≥ 80% in [7].
Take `O=C(NCC1CCOC1)c1cc(COCc2ccc3c(c2)CCCC3)on1` (centres unmarked) [(119), N-(tetrahydrofuran-3-ylmethyl)-5-(5,6,7,8-tetrahydronaphthalen-2-ylmethoxymethyl)isoxazole-3-carboxamide]: the pest or weed control at 2 % strength in [11] and in test [12] was ≥ 80% in each case. In addition, the pest or weed control at 0.1 % strength in [5] was ≥ 80%. Moreover, the pest or weed control at 3.5 ppm in test [2] is ≥ 90%. Moreover, the pest or weed control at 500 ppm in [6] and in test [3] was ≥ 90% throughout.
Take `O=C(NCC1CCOC1)c1cc(COCC2Oc3ccccc3O2)on1` (centres unmarked) [(122), N-(tetrahydrofuran-3-ylmethyl)-5-(1,3-benzodioxolan-2-ylmethoxymethyl)isoxazole-3-carboxamide]: the pest or weed control at 0.1 % strength in test [8] and in test [5] was ≥ 80% in each case. Further, the pest or weed control at 500 ppm in test [4] was found to be 100%.
For `CC(OCc1ccccc1)c1cc(C(=O)NCC2CCOC2)no1` (centres unmarked) [(129), N-(tetrahydrofuran-3-ylmethyl)-5-[1-(benzyloxy)ethyl]isoxazole-3-carboxamide], the pest or weed control at 500 ppm in test [6] and in test [10] was ≥ 90% in each case.
`O=C(NCC1CCOC1)c1cc(COCC2CCCC2)on1` (centres unmarked) [(131), N-(tetrahydrofuran-3-ylmethyl)-5-cyclopentylmethoxymethylisoxazole-3-carboxamide]: the pest or weed control at 2 % strength in [11] and in test [12] was ≥ 80% in each case. In [5], the pest or weed control at 0.1 % strength is ≥ 80%. In addition, in test [6], the pest or weed control at 500 ppm is ≥ 90%.
On to `O=C(NCC1CCOC1)c1cc(CCCCCCO)on1` (centres unmarked) [(144), N-(tetrahydrofuran-3-ylmethyl)-5-(6-hydroxyhexyl)isoxazole-3-carboxamide], for which the pest or weed control at 500 ppm in test [6] is ≥ 90%.
Turning to `O=C(NCC1CCOC1)c1cc(C(F)c2ccccc2)on1` (centres unmarked) [(154), N-(tetrahydrofuran-3-ylmethyl)-5-(1-fluoro-1-phenylmethyl)isoxazole-3-carboxamide], the pest or weed control at 500 ppm in [6] and in test [10] was ≥ 90% in each case.
Regarding `O=C(NCC1CCOC1)c1noc(COCc2ccccc2)c1CF` (centres unmarked) [(170), N-(tetrahydrofuran-3-ylmethyl)-(5-benzyloxymethyl-4-fluoromethyl)isoxazole-3-carboxamide], the pest or weed control at 0.1 % strength in [8] and in [5] was ≥ 80% throughout. Besides, the pest or weed control at 3.5 ppm in test [1] and in [2] was ≥ 90% in each case. In addition, the pest or weed control at 500 ppm in [3] is ≥ 90%; in [4], 100%.
